Measured values taken from patent publication US10160949B2, “Agent for improving sperm-motility” (Tokyo Metropolitan Geriatric Hospital and Institute of …, priority 2013, dated 2018).
Where two headings read alike, the source gives them in different places.

Assays:
[1] = system: sperm on day 5 after collection; assay: Migration distance of forwardly moving sperm by video recording and CASA (ImageJ); assay type: cell-based, human; settings: FIG. 5; for average migration distance compared among untreated, H2 and N2 groups: 10 patients, 10 s of forward movement, P=0.2193
Protocol: Then, the recorded video was analyzed by the CASA system (NIH) (computer assisted sperm analysis using ImageJ, description of necessary components and use of free software) to determine the migration distance of forwardly moving sperm.

[2] = Concentration of hydrogen in liquid (hydrogen electrode); assay type: physicochemical; settings: 10 min after 30 min of the H2 treatment
Protocol: Next, the culture solution was left to stand. […] The culture solution as so prepared was used to wash sperm, and a change in their motility was examined. […] After re-centrifugation, the concentration was decreased to 100 μM.

freeze-thawed sperm = system: freeze-thawed sperm
Protocol: Semen that was transferred to the clinic within four hours after ejaculation was suspended in a solution in which equal amounts of the Cleavage Medium and TEST-yolk buffer (TYB; Irvine Scientific, CA, USA) had been mixed. Then, the mixture was dispensed into cryotubes. The resulting cryotubes were once exposed to nitrogen vapor for 5 min, and were then cryopreserved in liquid nitrogen. At the time of thawing, each cryotube was heated in warm water at 37° C. After that, the sperm suspension in the cryotube was dispensed into four vials.
After the dispensed sperm suspension was washed for 5 min with each sperm washing medium, the motility of sperm was measured.

[3] = system: sperm that had a passage of five days or more after collection; settings: for percentage of sperm with forward motility compared with control (untreated) group: duration of gas treatment 5 min; for samples in which the percentage of sperm with forward motility was increased: of 17 samples with forward motility less than 15%
Protocol: In principle, the percentage (%) of sperm with motility (A+B+C)/(A+B+C+D) was calculated as an average as obtained by repeating the above examination two or three times. […] Here, as used herein, the percentage of sperm with forward motility is represented by the formula: (A+B)/(A+B+C+D).
The percentage of sperm with motility (the percentage of sperm with forward motility and the percentage of sperm with non-forward motility) and the percentage of immotile sperm were compared between the groups. […] To check whether or not the gas passed through the acryl box, another passage was inserted into a water-containing beaker. Whether the gas passed therethrough was confirmed by observing the occurrence of bubbling via the passage in the beaker. With regard to the N2 gas, the procedure was likewise performed and all were carried out at room temperature. A hundred μl of the sperm suspension was added dropwise to a 1008 dish. Before the mixed gas was made to pass therethrough, the dish was placed in the acryl box. […] After 40 min had passed, each sperm suspension was well mixed by pipetting. Next, several μl of the sperm suspension was added dropwise to a Makler container. Then, the sperm concentration, the number of sperm with forward motility, the number of sperm with non-forward motility, and the number of immotile sperm were determined visually. Also, with respect to the untreated group in which the sperm suspension was used as it was, the sperm concentration, the number of sperm with forward motility, the number of sperm with non-forward motility, and the number of immotile sperm were likewise determined visually. […] Samples of the untreated group in which the percentage of sperm with forward motility exceeded 15% were excluded. Regarding the rest samples, one sample was grouped into three treatment groups and each treatment group was measured twice. Specifically, with respect to each sample, the ratio of the number of sperm with forward motility to the total number of sperm in the visual field was defined as the percentage of sperm with forward motility. The ratio of the number of sperm with some motility (a moving flagellum), but without forward motility to the total number of sperm was defined as the percentage of sperm with non-forward motility.

mitochondria of sperm = settings: FIG. 7(d); compared with untreated and N2 treatment groups; P<0.001
Description: The stained sperm were visualized using a laser scanning confocal microscope (Leica, Wetzlar, Germany). In addition, the viability of sperm was checked by PI fluorescence staining.
Meanwhile, the differential interference images were designated as DIC (Differential interference contrast). […] FIG. 7(d) is a graph showing the results of semi-quantifying, using the ImageJ, the fluorescent intensity of the sperm stained with TMRM.

[4] = mixed gas containing 50% hydrogen molecules used for bubbling of a liquid; cited from earlier work
[5] = FIG. 3(a), sperm 5 days or more after collection, mixed gas treatment 40 min, 30 samples
[6] = FIG. 4, 17 samples from patients with forward motility less than 15%

## [HH] [H2, hydrogen]
[1]
  average migration distance compared among untreated, H2 and N2 groups: no significant difference
[1]; compared with untreated and N2 groups
  migration distance per second of the sperm: the longest one
[2]
  hydrogen in 10 μl of the sperm suspension: eliminated
freeze-thawed sperm; FIG. 8(a), 6 samples, patients with forward motility 50% or higher, washing medium containing 50% of H2, 5 min
  percentage of sperm with forward motility (average): 61.3%
freeze-thawed sperm; FIG. 8(a), 6 samples, patients with forward motility 50% or higher, washing medium containing 75% of H2, 5 min
  percentage of sperm with forward motility (average): 71.0%
freeze-thawed sperm; FIG. 8(a), 6 samples, patients with forward motility 50% or higher, washing medium containing 100% of H2, 5 min
  percentage of sperm with forward motility (average): 70.0%
freeze-thawed sperm; FIG. 8(b), 15 samples, patients with forward motility less than 50%, washing medium containing 50% of H2, 5 min
  percentage of sperm with forward motility (average): 41.2%
freeze-thawed sperm; FIG. 8(b), 15 samples, patients with forward motility less than 50%, washing medium containing 75% of H2, 5 min
  percentage of sperm with forward motility (average): 40.8%
freeze-thawed sperm; FIG. 8(b), 15 samples, patients with forward motility less than 50%, washing medium containing 100% of H2, 5 min
  percentage of sperm with forward motility (average): 31.4%
[3]; [5]
  percentage of sperm with forward motility (average): 16.8%
[3]; FIG. 3(b), duration of H2 treatment 30 or 60 min
  samples with percentage of sperm with forward motility higher than in the control: about 70 % of the samples
[3]; FIG. 3(b)
  percentage of sperm with forward motility compared with control (untreated) group: tended to decrease
[3]; FIG. 3(b), listed as gaseous agent for improving sperm-motility
  percentage of sperm with forward motility compared with control (untreated) group: did not result in the recovery of the motility of sperm
[3]; [6]
  percentage of sperm with forward motility (average): 11%
[3]; FIG. 4
  samples in which the percentage of sperm with forward motility was increased: 16 samples
[3]; FIG. 6, 30 to 150 min after 30 min H2 treatment, 10 patients
  time course of forward motility after treatment: a big change in the forward motility of sperm was not observed
[3]; FIG. 6, H2 treatment 30 min, retreatment 30 min at 24 hours
  motility 24 hours after treatment: had motility even after 24 hours
[3]; of 12 samples (25%)
  samples of sperm with non-forward motility among samples in which forward motility was not recovered: 3 samples
[3]; of 17 samples (35%), no recovery in untreated and N2 groups
  samples in which forward movement was recovered only in the H2 treatment group: Six
[3]; of 18 samples in which forward motility was recovered (94%), P<0.01
  samples in which the H2 treatment group exhibited a longer migration distance (increased forward motility) than the N2 treatment group: 17 samples
Mitochondria of sperm
  intensity of TMRM fluorescence (mitochondrial membrane potential): strong intensity of TMRM fluorescence
[4]
  hydrogen solubility: about 0.4 mM

## N#N [N2, nitrogen, reference compound]
[1]
  average migration distance compared among untreated, H2 and N2 groups: no significant difference
[3]; [5]
  percentage of sperm with forward motility (average): 7.7%
[3]; [6]
  percentage of sperm with forward motility (average): 3.6%
[3]; FIG. 4
  samples in which the percentage of sperm with forward motility was increased: four
